According to patent US6552225B1, “Chemical compounds” (AstraZeneca AB, priority 1999, dated 2003):

Key:
PDH = conditions: cited from earlier work
[1] = cited from earlier work

| SMILES | activity of PDH (PDH; after acute administration in animals) | proportion of PDH in its active form (PDH; single administration, 150 mg/kg, intraperitoneally) | glycaemia ([1]; Stacpoole et al., 1978) | plasma glucose ([1]; after repeated administration) | melting point |
| --- | --- | --- | --- | --- | --- |
| O=C(O)C(Cl)Cl [DCA, dichloroacetic acid] | increases the activity of PDH | increased the proportion of PDH in its active form | reducing glycaemia | significant decrease in plasma glucose |  |
| COc1cc(S(=O)(=O)Nc2ccccc2)c(OC)cc1NC(=O)[C@@](C)(O)C(F)(F)F |  |  |  |  | 194 to 195 °C |
